Data published in patent US20250197374A1, “WEE1 DEGRADING COMPOUNDS AND USES THEREOF” (BRISTOL-MYERS SQUIBB COMPANY, priority 2023, published 2025).
Read-outs that look alike come from different tables or passages of the source.

Legend:
Assay type in all cases: cell-based
[1] = system: MDA-MB-231 cells; assay: MDA-MB-231 cell proliferation assay (Cell-Titer-Glo, 120 hr); details: for EC50: read-out: MDA-MB 231 Cell Prolif. 120 hr EC50; for MDA-MB 231 Cell Prolif. 120 hr YMin (%): minimal percent of DMSO control observed
Method in brief: (§1)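 Growth inhibition was read as CellTiter-Glo luminescence after 120 h at 37 °C in RPMI/10% FBS, with 400 MKN45 or 800 MDA-MB-231 cells seeded per well. Compounds were tested in 10-point half-log series starting at 1 or 10 uM (0.1% DMSO), in triplicate for MKN45 and duplicate for MDA-MB-231. EC50 values are four-parameter fits to %DMSO control, and Ymin-obs is the minimal observed %DMSO.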

[2] = biological target: T1, WEE1 (Homo sapiens, UniProt P30291+Q96SW2); assay: WEE1-ePL degradation assay (293T-LentiX, InCELL Hunter luminescence, 4 hr); details: for DC50: LentiX-HEK293T cells expressing WEE1-ePL, 4 hr incubation, read-out: 293T-LentiX WEE1-ePL Degradation 4 hr EC50; for 293T-LentiX WEE1-ePL Degradation 4 hr YMin (%): lower limit of fit, % of DMSO control signal remaining
T1 construct: C-terminal ePL-tagged (DiscoverX, Fremont, CA) full-length WEE1 expression construct; expressed in transfected cells; host or cells: LentiX-HEK293T (Invitrogen), lentivirally transduced; the cells also over-express GSPT1-GN
T1 sequence (P30291 whole entry): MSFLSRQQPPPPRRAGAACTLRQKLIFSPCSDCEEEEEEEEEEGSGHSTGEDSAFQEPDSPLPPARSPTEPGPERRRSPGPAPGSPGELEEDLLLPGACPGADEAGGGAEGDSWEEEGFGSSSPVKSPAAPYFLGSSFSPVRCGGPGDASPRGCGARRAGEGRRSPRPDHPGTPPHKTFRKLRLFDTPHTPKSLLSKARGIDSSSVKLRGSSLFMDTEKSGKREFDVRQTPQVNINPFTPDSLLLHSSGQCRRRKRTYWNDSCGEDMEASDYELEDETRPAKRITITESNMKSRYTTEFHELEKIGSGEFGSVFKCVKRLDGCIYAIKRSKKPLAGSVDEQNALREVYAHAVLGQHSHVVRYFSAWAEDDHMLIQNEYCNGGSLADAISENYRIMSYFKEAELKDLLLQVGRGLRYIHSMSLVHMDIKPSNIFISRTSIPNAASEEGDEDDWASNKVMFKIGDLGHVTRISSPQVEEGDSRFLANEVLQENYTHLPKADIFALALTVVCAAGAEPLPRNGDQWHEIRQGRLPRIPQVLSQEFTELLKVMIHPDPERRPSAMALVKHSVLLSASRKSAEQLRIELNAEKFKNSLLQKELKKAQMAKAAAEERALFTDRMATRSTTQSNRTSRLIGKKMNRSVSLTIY
T1 sequence (Q96SW2 whole entry): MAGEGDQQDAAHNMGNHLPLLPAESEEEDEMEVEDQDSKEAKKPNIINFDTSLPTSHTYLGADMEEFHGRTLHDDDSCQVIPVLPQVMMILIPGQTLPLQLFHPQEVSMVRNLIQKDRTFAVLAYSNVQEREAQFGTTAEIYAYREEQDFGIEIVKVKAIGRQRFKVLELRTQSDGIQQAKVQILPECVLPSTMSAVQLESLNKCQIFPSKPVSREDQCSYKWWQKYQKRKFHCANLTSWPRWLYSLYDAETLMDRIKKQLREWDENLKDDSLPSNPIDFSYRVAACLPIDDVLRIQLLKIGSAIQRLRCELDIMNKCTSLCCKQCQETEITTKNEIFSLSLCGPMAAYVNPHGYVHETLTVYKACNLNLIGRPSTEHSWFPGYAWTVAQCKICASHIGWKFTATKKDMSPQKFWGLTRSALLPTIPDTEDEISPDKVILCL
T1 sequence (Q16531 whole entry partner): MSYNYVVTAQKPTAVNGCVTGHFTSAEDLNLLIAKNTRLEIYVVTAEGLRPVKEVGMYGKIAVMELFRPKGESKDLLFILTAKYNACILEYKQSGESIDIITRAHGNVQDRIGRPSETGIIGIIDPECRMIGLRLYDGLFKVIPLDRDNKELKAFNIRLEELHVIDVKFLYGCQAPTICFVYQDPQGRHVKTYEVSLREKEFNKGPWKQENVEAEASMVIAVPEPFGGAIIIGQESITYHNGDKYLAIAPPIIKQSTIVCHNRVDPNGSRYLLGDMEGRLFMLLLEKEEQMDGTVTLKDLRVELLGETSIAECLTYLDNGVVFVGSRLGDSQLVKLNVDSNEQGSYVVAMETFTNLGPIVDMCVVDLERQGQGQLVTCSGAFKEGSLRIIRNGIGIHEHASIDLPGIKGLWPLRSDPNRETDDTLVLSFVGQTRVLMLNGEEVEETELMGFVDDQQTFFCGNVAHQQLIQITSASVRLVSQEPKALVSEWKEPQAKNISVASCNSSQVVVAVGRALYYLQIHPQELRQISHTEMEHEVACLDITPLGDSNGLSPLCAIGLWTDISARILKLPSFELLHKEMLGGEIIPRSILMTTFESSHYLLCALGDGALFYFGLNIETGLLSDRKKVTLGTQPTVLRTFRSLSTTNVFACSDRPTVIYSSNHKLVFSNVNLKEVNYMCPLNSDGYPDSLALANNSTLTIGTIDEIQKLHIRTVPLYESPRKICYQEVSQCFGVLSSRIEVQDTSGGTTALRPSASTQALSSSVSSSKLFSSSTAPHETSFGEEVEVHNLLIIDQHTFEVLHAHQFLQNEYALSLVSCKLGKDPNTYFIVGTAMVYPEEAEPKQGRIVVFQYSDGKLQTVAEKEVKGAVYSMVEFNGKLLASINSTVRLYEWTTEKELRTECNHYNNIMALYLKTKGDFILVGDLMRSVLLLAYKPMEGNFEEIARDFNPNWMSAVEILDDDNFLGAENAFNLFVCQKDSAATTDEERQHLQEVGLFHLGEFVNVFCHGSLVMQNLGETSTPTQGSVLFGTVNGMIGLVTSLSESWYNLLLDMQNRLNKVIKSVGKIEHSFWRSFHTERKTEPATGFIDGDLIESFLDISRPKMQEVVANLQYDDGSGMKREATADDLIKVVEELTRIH
Method in brief: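 EC50 comes from a four-parameter logistic fit of ePL luminescence (InCELL Hunter), with DMSO control defining Ymax. Compounds ran as 10-point 3-fold dilutions from 1 or 10 µM for 4 h at 37 °C. Cells were HEK293T-LentiX with ePL-tagged full-length WEE1 and over-expressed Cereblon-resistant GSPT1-GN.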

[3] = system: MKN45 cells; assay: MKN45 cell proliferation assay (Cell-Titer-Glo, 120 hr); details: for EC50: read-out: MKN45 Cell Prolif. 120 hr EC50; for MKN45 Cell Prolif. 120 hr YMin (%): minimal percent of DMSO control observed
Method in brief: as §1

[4] = Homo sapiens, MDA-MB-231, 120 h

| SMILES | EC50 [1, 4] [nM] | MDA-MB 231 Cell Prolif. 120 hr YMin (%) [1] [%] | DC50 [2] [nM] | 293T-LentiX WEE1-ePL Degradation 4 hr YMin (%) [2] [%] | EC50 ([3]; Homo sapiens, MKN-45, 120 h) [nM] | MKN45 Cell Prolif. 120 hr YMin (%) [3] [%] | EC50 [1] [nM] | EC50 [3] [nM] |
| --- | --- | --- | --- | --- | --- | --- | --- | --- |
| COC[C@@H]1CN(Cc2cc(F)c3nc(C(=O)N4CCOCC4)ccc3c2)C[C@H]1Oc1ccc2c(c1)CN([C@H]1CCC(=O)NC1=O)C2=O [Example 106, (3S)-3-(5-{[(3S,4S)-1-{[8-fluoro-2-(morpholine-4-carbonyl)quinolin-6-yl]methyl}-4-(methoxymethyl)pyrrolidin-3-yl]oxy}-1-oxo-2,3-dihydro-1H-isoindol-2-yl)piperidine-2,6-dione] | 18 | 50.8 | 4 | 29.8 | 18 | 11.5 |  |  |
| O=C1CCC(N2C(=O)c3ccc(O[C@H]4CCN(Cc5cc(F)c6nc(C7CCOCC7)ccc6c5)C4)cc3C2=O)C(=O)N1 (single isomer, unassigned) [Example 11, 2-((S*)-2,6-dioxopiperidin-3-yl)-5-(((S)-1-((8-fluoro-2-(tetrahydro-2H-pyran-4-yl)quinolin-6-yl)methyl)pyrrolidin-3-yl)oxy)isoindoline-1,3-dione] | 525 | 53.2 | 4 | 30.4 | 33 | 12.1 |  |  |
| COC[C@@H]1CN(Cc2cc3ccc(C4CCC(C(C)(C)O)CC4)cc3cn2)C[C@H]1Oc1ccc2c(c1)CN([C@H]1CCC(=O)NC1=O)C2=O (relative stereo) [Example 112, rel-(S)-3-(5-(((3S,4S)-1-((7-(4-(2-hydroxypropan-2-yl)cyclohexyl)isoquinolin-3-yl)methyl)-4-(methoxymethyl)pyrrolidin-3-yl)oxy)-1-oxoisoindolin-2-yl)piperidine-2,6-dione] | 12 | 25.2 | 1 | 28.0 |  | 8.7 |  |  |
| COC[C@@H]1CN(Cc2ccc3c(ccn3C(=O)C3CCOCC3)c2)C[C@H]1Oc1ccc2c(c1)CN([C@H]1CCC(=O)NC1=O)C2=O [Example 25, (3S)-3-(5-{[(3S,4S)-4-(methoxymethyl)-1-{[1-(oxane-4-carbonyl)-1H-indol-5-yl]methyl}pyrrolidin-3-yl]oxy}-1-oxo-2,3-dihydro-1H-isoindol-2-yl)piperidine-2,6-dione] | 128 | 80.7 | 2 | 39.0 | 35 | 25.4 |  |  |
| COC[C@@H]1CN(Cc2cc(F)c3nc(N4CCC(OC)C4)ccc3c2)C[C@H]1Oc1ccc2c(c1)CN([C@H]1CCC(=O)NC1=O)C2=O (single isomer, unassigned) [Example 97, (S)-3-(5-(((3S,4S)-1-((8-fluoro-2-((R*)-3-methoxypyrrolidin-1-yl)quinolin-6-yl)methyl)-4-(methoxymethyl)pyrrolidin-3-yl)oxy)-1-oxoisoindolin-2-yl)piperidine-2,6-dione] | 22 | 22.0 | 1 | 29.8 | 1 | 8.7 |  |  |
| COC[C@@H]1CN(Cc2cc(F)c3nc(N4C[C@H]5CCO[C@H]5C4)ncc3c2)C[C@H]1Oc1ccc2c(c1)CN([C@H]1CCC(=O)NC1=O)C2=O (single isomer, unassigned) [Example 10, (S)-3-(5-(((3S,4S)-1-((8-fluoro-2-((3aR*,6aR*)-hexahydro-5H-furo[2,3-c]pyrrol-5-yl)quinazolin-6-yl)methyl)-4-(methoxymethyl)pyrrolidin-3-yl)oxy)-1-oxoisoindolin-2-yl)piperidine-2,6-dione] | 70 | 24.6 | 2 | 27.8 | 2 | 10.6 |  |  |
| COC[C@@H]1CN(Cc2cc(F)c3nc(C4CN(CC(F)(F)F)C4)ccc3c2)C[C@H]1Oc1ccc2c(c1)CN([C@H]1CCC(=O)NC1=O)C2=O [Example 37, (3S)-3-(5-{[(3S,4S)-1-({8-fluoro-2-[1-(2,2,2-trifluoroethyl)azetidin-3-yl]quinolin-6-yl}methyl)-4-(methoxymethyl)pyrrolidin-3-yl]oxy}-1-oxo-2,3-dihydro-1H-isoindol-2-yl)piperidine-2,6-dione] | 122 | 6.3 |  | 30.1 | 1 | 11.0 |  |  |
| COC[C@@H]1CN(Cc2cc(F)c3nc(C4CC(C)OC(C)C4)ccc3c2)C[C@H]1Oc1ccc2c(c1)CN([C@H]1CCC(=O)NC1=O)C2=O (relative stereo) [Example 52, re1-(3S)-3-(5-{[(3S,4S)-1-{[2-(2,6-dimethyloxan-4-yl)-8-fluoroquinolin-6-yl]methyl}-4-(methoxymethyl)pyrrolidin-3-yl]oxy}-1-oxo-2,3-dihydro-1H-isoindol-2-yl)piperidine-2,6-dione] | 12 | 16.7 | 1 | 27.2 | 1 | 8.3 |  |  |
| COC[C@@H]1CN(Cc2ccc3nc(C4CCOCC4)ccc3n2)C[C@H]1Oc1ccc2c(c1)CN([C@H]1CCC(=O)NC1=O)C2=O [Example 128, (3S)-3-(5-{[(3S,4S)-4-(methoxymethyl)-1-{[6-(oxan-4-yl)-1,5-naphthyridin-2-yl]methyl}pyrrolidin-3-yl]oxy}-1-oxo-2,3-dihydro-1H-isoindol-2-yl)piperidine-2,6-dione] | 127 | 83.3 | 1 | 30.5 | 11 | 18.2 |  |  |
| Cc1cc([C@@H]2CN(Cc3cc(F)c4nc(C5CCOCC5)ccc4c3)C[C@H]2Oc2ccc3c(c2)CN([C@H]2CCC(=O)NC2=O)C3=O)cc(C)n1 (relative stereo) [Example 127, (3S)-3-(5-{[(3S*,4R*)-4-(2,6-dimethylpyridin-4-yl)-1-{[8-fluoro-2-(oxan-4-yl)quinolin-6-yl]methyl}pyrrolidin-3-yl]oxy}-1-oxo-2,3-dihydro-1H-isoindol-2-yl)piperidine-2,6-dione] | 278 | 40.1 | 3 | 20.2 | 12 | 9.8 |  |  |
| CN1CC2(CC(c3ccc4cc(CN5CC[C@H](Oc6ccc7c(c6)CN([C@H]6CCC(=O)NC6=O)C7=O)C5)ccc4n3)CO2)C1 (single isomer, unassigned) [Example 2, (S)-3-(5-(((S)-1-((2-((S*)-2-methyl-5-oxa-2-azaspiro[3.4]octan-7-yl)quinolin-6-yl)methyl)pyrrolidin-3-yl)oxy)-1-oxoisoindolin-2-yl)piperidine-2,6-dione] |  | 73.8 | 339 | 33.4 |  | 28.1 | 234 | 53 |
| COC[C@@H]1CN(Cc2cc(F)c3nc(C(=O)N(C)C4CCOCC4)ccc3c2)C[C@H]1Oc1ccc2c(c1)CN([C@H]1CCC(=O)NC1=O)C2=O [Example 117, 6-{[(3S,4S)-3-({2-[(3S)-2,6-dioxopiperidin-3-yl]-1-oxo-2,3-dihydro-1H-isoindol-5-yl}oxy)-4-(methoxymethyl)pyrrolidin-1-yl]methyl}-8-fluoro-N-methyl-N-(oxan-4-yl)quinoline-2-carboxamide] | 31 | 40.1 | 2 | 27.5 | 4 | 9.1 |  |  |
| COC[C@@H]1CN(Cc2cc3ccc(N4CCN(CC(F)(F)F)CC4)cc3cn2)C[C@H]1Oc1ccc2c(c1)CN([C@H]1CCC(=O)NC1=O)C2=O [Example 39, (3S)-3-(5-{[(3S,4S)-4-(methoxymethyl)-1-({7-[4-(2,2,2-trifluoroethyl)piperazin-1-yl]isoquinolin-3-yl}methyl)pyrrolidin-3-yl]oxy}-1-oxo-2,3-dihydro-1H-isoindol-2-yl)piperidine-2,6-dione] | 25 | 41.6 |  | 31.6 | 1 | 10.3 |  |  |
| CN1CC[C@]2(C[C@H](c3ccc4cc(CN5CC[C@H](Oc6ccc7c(c6)CN([C@H]6CCC(=O)NC6=O)C7=O)C5)ccc4n3)CO2)C1 (relative stereo) [Example 3, rel-(3S)-3-(5-(((3S)-1-((2-(7-methyl-1-oxa-7-azaspiro[4.4]nonan-3-yl)quinolin-6-yl)methyl)pyrrolidin-3-yl)oxy)-1-oxoisoindolin-2-yl)piperidine-2,6-dione] | 129 | 61.3 | 10 | 28.1 | 19 | 13.0 |  |  |
